In this test the target is T1, LCK KD GST (225-509) (Homo sapiens, UniProt P06239).
T1 construct: LCK KD GST (225-509); GST
The test is described as follows: LCK Homogenous Time Resolved Fluorescent (HTRF) kinase assay. It is filed as biochemical. On the procedure:
The LCK HTRF assay begins with LCK in the presence of ATP phosphorylating the biotinylated peptide Gastrin. The reaction incubates for 90 min. To quench the assay detection reagents are added which both stop the reaction by diluting out the enzyme and chelating the metals due to the presence of EDTA. Once the detection reagents are added the assay incubates for 30 min to allow for equilibration of the detection reagents.
Buffer conditions are as follows: 50 mM HEPES pH 7.5, 50 mM NaCl, 20 mM MgCl, 5 mM MnCl, 2 mM DTT, 0.05% BSA.
The assay is quenched and stopped with 160 μL of detection reagent. Detection reagents are as follows: Buffer made of 50 mM Tris, pH 7.5, 100 mM NaCl, 3 mM EDTA, 0.05% BSA, 0.1% Tween20.
The assay plate is read in either a Discovery or a RubyStar.

T1 sequence (P06239 225-509): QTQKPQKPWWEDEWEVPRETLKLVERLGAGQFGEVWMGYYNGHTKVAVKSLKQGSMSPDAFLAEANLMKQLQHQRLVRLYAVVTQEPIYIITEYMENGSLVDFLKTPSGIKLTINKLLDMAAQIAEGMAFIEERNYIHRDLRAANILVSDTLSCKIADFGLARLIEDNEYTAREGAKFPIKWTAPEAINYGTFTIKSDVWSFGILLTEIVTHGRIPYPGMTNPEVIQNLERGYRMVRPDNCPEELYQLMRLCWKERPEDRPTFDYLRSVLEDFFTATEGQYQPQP

`CNc1nccc(-c2cccnc2Oc2cc(C(=O)Nc3cc(C(F)(F)F)ccc3N3CCCCC3)ccc2C)n1`: the IC50 is less than 1000 nM.

`CNc1nccc(-c2cccnc2Oc2cc(C(=O)Nc3cc(C(F)(F)F)ccc3N(C)C3CCN(C)CC3)c(F)cc2C)n1` [2-fluoro-4-methyl-5-((3-(2-(methylamino)-4-pyrimidinyl)-2-pyridinyl)oxy)-N-(2-(methyl(1-methyl-4-piperidinyl)amino)-5-(trifluoromethyl)phenyl)benzamide] yielded a 50% inhibitory concentration (IC50) of less than 1000 nM. As for `CNc1nccc(-c2cccnc2Oc2ccc(F)c(C(=O)Nc3cc(C(F)(F)F)ccc3N(C)C3CCN(C)C3)c2)n1` (centres unmarked) [2-fluoro-5-((3-(2-(methylamino)-4-pyrimidinyl)-2-pyridinyl)oxy)-N-(2-(methyl(1-methyl-3-pyrrolidinyl)amino)-5-(trifluoromethyl)phenyl)benzamide], the half-maximal inhibitory concentration (IC50) was less than 1000 nM. Regarding `CNc1nccc(-c2cccnc2Oc2ccc(F)c(C(=O)Nc3cccc(C(C)C)c3)c2)n1` [2-fluoro-5-((3-(2-(methylamino)-4-pyrimidinyl)-2-pyridinyl)oxy)-N-(3-(1-methylethyl)phenyl)benzamide], the half-inhibitory concentration (IC50) is less than 1000 nM. For the molecule `CNc1nccc(-c2cccnc2Oc2cccc(NC(=O)c3cc(Cl)cc(Cl)c3)c2)n1` [3,5-dichloro-N-(3-((3-(2-(methylamino)-4-pyrimidinyl)-2-pyridinyl)oxy)phenyl)benzamide], the IC50 was less than 1000 nM. Molecule `CNc1cc(-c2cccnc2Oc2cc(NC(=O)c3cccc(C(C)C)c3)ccc2C)ccn1` [3-(1-methylethyl)-N-(4-methyl-3-((2′-(methylamino)-3,4′-bipyridin-2-yl)oxy)phenyl)benzamide] had an IC50 of less than 1000 nM.

On to `CCN(CC)CCNc1nccc(-c2cccnc2Oc2cc(C(=O)Nc3cc(C(F)(F)F)ccc3N3CCOCC3)ccc2C)n1` [3-((3-(2-((2-(diethylamino)ethyl)amino)-4-pyrimidinyl)-2-pyridinyl)oxy)-4-methyl-N-(2-(4-morpholinyl)-5-(trifluoromethyl)phenyl)benzamide], for which the IC50 is less than 1000 nM. `CNc1nccc(-c2cccnc2Oc2cccc(C(=O)Nc3cccc(C(C)C)c3)c2)n1` [3-((3-(2-(methylamino)-4-pyrimidinyl)-2-pyridinyl)oxy)-N-(3-(1-methylethyl)phenyl)benzamide] came in with a half-inhibitory concentration (IC50) of less than 1000 nM. `CCNc1ncnc(-c2cccnc2Oc2cc(C(=O)Nc3cccc(C(C)C)c3)ccc2C)n1` [3-((3-(4-(ethylamino)-1,3,5-triazin-2-yl)-2-pyridinyl)oxy)-4-methyl-N-(3-(1-methylethyl)phenyl)benzamide]: the IC50 is less than 1000 nM. For `CC(C)c1cccc(NC(=O)c2cccc(Nc3ncccc3-c3ncnc(N)n3)c2)c1` [3-((3-(4-amino-1,3,5-triazin-2-yl)-2-pyridinyl)amino)-N-(3-(1-methylethyl)phenyl)benzamide] the value was less than 1000 nM; for `CNc1nccc(-c2cc(N(C)CCCN(C)C)cnc2Oc2cc(C(=O)Nc3cccc(C(C)C)c3)ccc2C)n1` [3-((5-((3-(dimethylamino)propyl)(methyl)amino)-3-(2-(methylamino)-4-pyrimidinyl)-2-pyridinyl)oxy)-4-methyl-N-(3-(1-methylethyl)phenyl)benzamide], less than 1000 nM; for `CNc1nccc(-c2cccnc2Oc2cc(NC(=O)c3cccc(N(C)C)c3)cc(C(F)(F)F)c2)n1` [3-(dimethylamino)-N-(3-((3-(2-(methylamino)-4-pyrimidinyl)-2-pyridinyl)oxy)-5-(trifluoromethyl)phenyl)benzamide], less than 1000 nM. On to `CNc1nccc(-c2cccnc2Oc2cc(Br)cc(C(=O)Nc3cc(C(F)(F)F)ccc3N(C)[C@H]3CCN(C)C3)c2)n1` [3-bromo-5-((3-(2-(methylamino)-4-pyrimidinyl)-2-pyridinyl)oxy)-N-(2-(methyl((3S)-1-methyl-3-pyrrolidinyl)amino)-5-(trifluoromethyl)phenyl)benzamide], for which the IC50 was less than 1000 nM. In the case of `CNc1nccc(-c2cccnc2Oc2cc(Br)cc(C(=O)Nc3cccc(C(C)C)c3)c2)n1` [3-bromo-5-((3-(2-(methylamino)-4-pyrimidinyl)-2-pyridinyl)oxy)-N-(3-(1-methylethyl)phenyl)benzamide] it was less than 1000 nM; in that of `C#Cc1cc(Oc2ncccc2-c2ccnc(NC)n2)cc(C(=O)Nc2cccc(C(F)(F)F)c2)c1` [3-ethynyl-5-((3-(2-(methylamino)-4-pyrimidinyl)-2-pyridinyl)oxy)-N-(3-(trifluoromethyl)phenyl)benzamide], less than 1000 nM; in that of `CNc1ncnc(-c2cccnc2Oc2cc(F)cc(C(=O)Nc3cccc(C(C)C)c3)c2)n1` [3-fluoro-5-((3-(4-(methylamino)-1,3,5-triazin-2-yl)-2-pyridinyl)oxy)-N-(3-(1-methylethyl)phenyl)benzamide], less than 1000 nM.

In turn, `CNc1nccc(-c2cc(Cl)cnc2Oc2c(C)cccc2C)n1` [4-(5-chloro-2-((2,6-dimethylphenyl)oxy)-3-pyridinyl)-N-methyl-2-pyrimidinamine] yielded a concentration for half-maximal inhibition (IC50) of less than 1000 nM. As for `COc1ccc(C(=O)Nc2cccc(C(F)(F)F)c2)cc1Nc1ncccc1-c1ccncn1` [4-(methyloxy)-3-((3-(4-pyrimidinyl)-2-pyridinyl)amino)-N-(3-(trifluoromethyl)phenyl)benzamide], the half-maximal inhibitory concentration (IC50) is less than 1000 nM. `CNc1nccc(-c2cccnc2Oc2cc(C(=O)Nc3cc(C(F)(F)F)ccc3N3CCCCC3)ccc2Cl)n1` [4-chloro-3-((3-(2-(methylamino)-4-pyrimidinyl)-2-pyridinyl)oxy)-N-(2-(1-piperidinyl)-5-(trifluoromethyl)phenyl)benzamide]: the IC50 is less than 1000 nM. `CNc1nccc(-c2cccnc2Oc2cc(C(=O)Nc3cc(C(F)(F)F)ccc3N3CCCCC3)ccc2F)n1` [4-fluoro-3-((3-(2-(methylamino)-4-pyrimidinyl)-2-pyridinyl)oxy)-N-(2-(1-piperidinyl)-5-(trifluoromethyl)phenyl)benzamide] displayed a half-maximal inhibitory concentration (IC50) of less than 1000 nM. As to `CC(C)c1cccc(NC(=O)c2ccc(F)c(Nc3ncccc3-c3ncnc(NCCCn4ccnc4)n3)c2)c1` [4-fluoro-3-((3-(4-((3-(1H-imidazol-1-yl)propyl)amino)-1,3,5-triazin-2-yl)-2-pyridinyl)amino)-N-(3-(1-methylethyl)phenyl)benzamide], the half-inhibitory concentration (IC50) was less than 1000 nM. In turn, `COc1cc(-c2cccnc2Oc2cc(C(=O)Nc3cccc(C(F)(F)F)c3)ccc2C)ccn1` [4-methyl-3-((2′-(methyloxy)-3,4′-bipyridin-2-yl)oxy)-N-(3-(trifluoromethyl)phenyl)benzamide] displayed a 50% inhibitory concentration (IC50) of less than 1000 nM. Consider `CNc1nccc(-c2cccnc2Oc2cc(C(=O)Nc3cc(OC[C@H]4CCCN4C)cc(C(F)(F)F)c3)ccc2C)n1` [4-methyl-3-((3-(2-(methylamino)-4-pyrimidinyl)-2-pyridinyl)oxy)-N-(3-((((2R)-1-methyl-2-pyrrolidinyl)methyl)oxy)-5-(trifluoromethyl)phenyl)benzamide], for which the IC50 was less than 1000 nM. In the case of `CNc1nccc(-c2cccnc2Oc2cc(C(=O)Nc3cccc(OCc4ccccc4)c3)ccc2C)n1` [4-methyl-3-((3-(2-(methylamino)-4-pyrimidinyl)-2-pyridinyl)oxy)-N-(3-((phenylmethyl)oxy)phenyl)benzamide] it was less than 1000 nM; in that of `CNc1nccc(-c2cccnc2Oc2cc(C(=O)Nc3cccc(Cc4ccccc4)c3)ccc2C)n1` [4-methyl-3-((3-(2-(methylamino)-4-pyrimidinyl)-2-pyridinyl)oxy)-N-(3-(phenylmethyl)phenyl)benzamide], less than 1000 nM.

Molecule `CNc1nccc(-c2cccnc2Oc2cc(C(=O)Nc3ccc(C(C)C)cc3)ccc2C)n1` [4-methyl-3-((3-(2-(methylamino)-4-pyrimidinyl)-2-pyridinyl)oxy)-N-(4-(1-methylethyl)phenyl)benzamide] gave an IC50 of less than 1000 nM. In the case of `CNc1nccc(-c2cccnc2Oc2cc(C(=O)Nc3cc(-c4ccccc4)ccc3OC)ccc2C)n1` [4-methyl-3-((3-(2-(methylamino)-4-pyrimidinyl)-2-pyridinyl)oxy)-N-(4-(methyloxy)-1,1′-biphenyl-3-yl)benzamide], the concentration for half-maximal inhibition (IC50) was less than 1000 nM.

With `CNc1nccc(-c2cccnc2Oc2cc(C(=O)N[C@H](C)c3ccccc3)ccc2C)n1` [4-methyl-3-((3-(2-(methylamino)-4-pyrimidinyl)-2-pyridinyl)oxy)-N-((1R)-1-phenylethyl)benzamide], the IC50 is less than 1000 nM. For `CNc1nccc(-c2cccnc2Oc2cc(C(=O)NCc3cccc(C(F)(F)F)c3)ccc2C)n1` [4-methyl-3-((3-(2-(methylamino)-4-pyrimidinyl)-2-pyridinyl)oxy)-N-((3-(trifluoromethyl)phenyl)methyl)benzamide] the value was less than 1000 nM; for `CNc1nccc(-c2cc(N3CCN(C)CC3)cnc2Oc2cc(C(=O)Nc3cccc(C(C)C)c3)ccc2C)n1` [4-methyl-3-((3-(2-(methylamino)-4-pyrimidinyl)-5-(4-methyl-1-piperazinyl)-2-pyridinyl)oxy)-N-(3-(1-methylethyl)phenyl)benzamide], less than 1000 nM; for `CNc1nccc(-c2cc(N3CCOCC3)cnc2Oc2cc(C(=O)Nc3cccc(C(C)C)c3)ccc2C)n1` [4-methyl-3-((3-(2-(methylamino)-4-pyrimidinyl)-5-(4-morpholinyl)-2-pyridinyl)oxy)-N-(3-(1-methylethyl)phenyl)benzamide], less than 1000 nM.

With `CNc1ncnc(-c2cccnc2Oc2cc(C(=O)Nc3cc(C(F)(F)F)ccc3N3CCCCC3)ccc2C)n1` [4-methyl-3-((3-(4-(methylamino)-1,3,5-triazin-2-yl)-2-pyridinyl)oxy)-N-(2-(1-piperidinyl)-5-(trifluoromethyl)phenyl)benzamide], the IC50 was less than 1000 nM.

These data come from patent US8476434B2, “Protein kinase modulators and method of use” (Amgen Inc., priority 2004, dated 2013).
